Target: T1, ESRRA (Homo sapiens, UniProt P11474)
T1 construct: endogenous in cells; host or cells: HCC38 CD44hi cells (2D culture)
T1 sequence (P11474 1-423): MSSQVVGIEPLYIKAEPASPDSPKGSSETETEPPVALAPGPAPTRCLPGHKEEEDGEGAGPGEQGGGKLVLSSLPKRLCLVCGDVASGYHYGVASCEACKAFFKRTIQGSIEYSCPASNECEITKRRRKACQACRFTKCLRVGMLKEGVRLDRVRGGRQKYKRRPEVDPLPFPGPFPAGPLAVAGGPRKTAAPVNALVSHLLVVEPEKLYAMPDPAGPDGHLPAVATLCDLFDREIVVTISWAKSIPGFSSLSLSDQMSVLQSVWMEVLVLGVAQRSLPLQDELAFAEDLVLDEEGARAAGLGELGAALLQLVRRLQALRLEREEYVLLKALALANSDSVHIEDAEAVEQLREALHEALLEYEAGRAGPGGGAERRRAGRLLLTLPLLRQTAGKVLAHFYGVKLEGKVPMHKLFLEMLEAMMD
Assay: Western blot of CDH1 expression after ESRRA knockdown (siRNA) or ESRRA inhibition (C14) in 2D cultured HCC38 CD44hi cells
Assay type: cell-based
Settings: 2D culture, C14 at 5 and 10 μM vs DMSO, 48 hours post-treatment, normalized to β-Actin, n=3, p≤0.05
Protocol: Preliminary validation of the MET network included an in-vitro knockdown of ESRRA in HCC38 CD44^hi cells (n=3 biological replicates). Predesigned siRNA specific to ESRRA and scrambled siRNA were purchased from Integrated DNA Technologies, USA (TriFECTa® RNAi Kit, Design ID hs.Ri.ESRRA.13). HCC38 CD44^hi cells were seeded in 24 well plates at a density of 9000 cells/well and ESRRA knockdown was performed using 10 nM of pooled siRNA (hs.Ri.ESRRA.13.1, hs.Ri.ESRRA.13.2 and hs.Ri.ESRRA.13.3) using Lipofectamine RNAiMax (ThermoFisher Scientific, USA) as per the manufacturer's protocol. Cells were harvested for protein extraction 48 hrs post siRNA transfection to study the downstream effect on CDH1 expression upon ESRRA knockdown using western blot. […]
Proteins were extracted from control and treated cells using ice cold modified RIPA buffer (50 mM Tris-HCl pH 7.5, 150 mM NaCl, 1 mM EDTA, 1 mM EGTA, 1% Triton X-100, 0.1% SDS with supplemented with 1× protease and phosphatase inhibitor cocktails). […] Proteins were quantified using the Pierce™ BCA Protein Assay Kit (Cat. 23227, Thermo Fisher Scientific, USA) as per the manufacturer's instructions. […] The signal intensity of the bands in western blots was quantified using Image Studio Lite version 5.2 (LI-COR Biotechnology, USA).

CC(C)c1cccc(-n2cc(C(=O)c3ccccc3N)nn2)c1 [ESRRA antagonist, (2-Aminophenyl) (1-(3-isopropylphenyl)-1H-1,2,3-triazol-4-yl) methanone] was tested, and the “CDH1 expression (western blot, relative fold-change)” value was “significant increase”.
